Results published in patent EP2698385A1, “Detection of synthetic cannabinoids” (priority 2012, dated 2014).
Counter-ions that a name gives are not always drawn. Like-named read-outs stand apart in the source and are kept apart here.

What was measured:
Assay type in all cases: binding, sheep
Antibody to Immunogen I = conditions: Cross-reactants at 100 ng/ml, Antibody to Immunogen I
Procedure: (§1) An aqueous solution of each immunogen was formulated with Freund's Complete Adjuvant (FCA) to form an emulsion consisting of 2mg/ml* immunogen in 50% (v/v) FCA. Three sheep were immunised with this emulsion (1° immunisation), 0.25ml being intramuscularly injected at each of four sites in the flank of each animal. Subsequent immunizations (boosts) contained 1mg/ml* immunogen. All boosts were emulsified in 50% (v/v) Freund's Incomplete Adjuvant (FIA) and were administered in the same manner as the 1° immunisation, at monthly intervals. Blood sampling took place 7 to 14 days after each boost. *The general procedure for immunogen administration is outlined above, however, it was necessary to deviate from this protocol in some cases, due to reduced immunogen concentrations (Immunogens II, IV, VII and VIII) and/or amount available (Immunogen VIII). Any deviations from the protocol described are outlined in Table 1A below and highlighted in bold. Table 1A: Amount and volume of immunogens administered for primary and subsequent boosts
(§2) The wells of an enhanced binding 96 well polystyrene microtiter plate were coated with IgG fraction of antiserum raised to Immunogen I or II, diluted in 10mM Tris, pH8.5 (125µl/well). The appropriate antibody coating dilution was determined using standard ELISA checkerboard techniques. The plate was incubated overnight at 4°C, washed 4 times over 10 minutes with Tris buffered saline containing Tween 20 (TBST) and tapped dry. Standard solutions (JWH-018 for Immunogens I and II) were applied at 0, 0.625, 1.25, 2.5, 5, 10, 20 and 40ng/ml and 50µl of each was added to the appropriate wells. 75µl of conjugate (appropriate hapten-HRP) diluted in Tris buffer (pH 7.2) containing EDTA, D-mannitol, sucrose, thimerosal and BSA, was added to each of the wells. The appropriate dilution of conjugate was also determined using standard ELISA checkerboard techniques. The plate was incubated at 25°C for 1 hour. Excess unbound conjugate was removed by washing 6 times over a 10 minute period with TBST. 125µl of tetramethylbenzidine (TMB) substrate solution was added to each well of the plate that was then incubated for 20 minutes in the dark at room temperature. The reaction was terminated by addition of 125µl 0.2M H2SO4 to each well. The absorbance was then measured at 450nm using a microtiter plate reader. The data are inputted to a computer program called 'KC Junior'. It is a 4 parameter fit curve and allow the calculatation of concentrations between the standard runs. This program is used to calculate the IC50s by dividing the 0ng/ml OD value by 2 and obtaining the concentration value from the curve for this OD.
In a similar manner to that described above, the wells of a 96-well microtiter plate were coated with the IgG fraction of the antiserum raised to Immunogens I or II. Standard solutions (JWH-018 for Immunogen I and II) were applied at 0, 0.625, 1.25, 2.5, 5, 10, 20 and 40ng/ml and conjugate was employed as detection reagent.
(§3) The data set our in Tables 3 and 4 are generated using antibodies raised against the indicated Immunogens in a competitive binding assay with the indicated tracers, using the indicated standards: Table 2
(§4) A450 = absorbance at 450nm B = absorbance at 450nm at xng/ml standard concentration B0 = absorbance at 450nm at 0ng/ml standard concentration IC50 = standard concentration which produces 50% B/B0
(§5) In order to determine the specificity of the competitive ELISAs, standard solutions of a range of structurally similar synthetic cannabinoids and their metabolites were prepared in TBST. Using the calibration curves generated and employing a single level of cross reactants, these were used to determine the cross-reactivity of each immunoassay with these substances. […]

[1] = system: Antibody to Immunogen VII
Procedure: as §1, §2
(§6) In a similar manner to that described above, the wells of a 96-well microtiter plate were coated with the IgG fraction of the antiserum raised to Immunogens IV, VII or VIII. Standard solutions (JWH-018 for Immunogens IV and VIII, JWH-015 for Immunogen VII) were prepared in TBST at 0, 1.25, 2.5, 5, 10, 20, 40 and 80ng/ml and conjugate was employed as detection reagent.
as §3, §4, §5

Antibody to Immunogen IV = system: Antibody to Immunogen IV
Procedure: as §1, §2, §6, §3, §4, §5

[2] = system: Antibody to Immunogen VIII
Procedure: as §1, §2, §6, §3, §4, §5

[3] = Cross-reactants at 100 ng/ml, Antibody to Immunogen VII
[4] = Cross-reactants at 100 ng/ml, Antibody to Immunogen IV
[5] = Cross-reactants at 100 ng/ml, Antibody to Immunogen VIII

Row | Compound | %B/B0 (Antibody to Immunogen I) [%] | %B/B0 [1, 3] [%] | %B/B0 (Antibody to Immunogen IV; [4]) [%] | %B/B0 [2, 5] [%] | %B/B0 (Antibody to Immunogen I; listed as YWH-081 7-methoxynaphthyl isomer (JWH-164)) [%] | %B/B0 ([1]; Cross-reactants at 100 ng/ml, Antibody to Immunogen VII, listed as YWH-081 7-methoxynaphthyl isomer (JWH-164)) [%] | %B/B0 (Antibody to Immunogen IV; Cross-reactants at 100 ng/ml, Antibody to Immunogen IV, listed as YWH-081 7-methoxynaphthyl isomer (JWH-164)) [%] | %B/B0 ([2]; Cross-reactants at 100 ng/ml, Antibody to Immunogen VIII, listed as YWH-081 7-methoxynaphthyl isomer (JWH-164)) [%] | %B/B0 [1] [%] | %B/B0 (Antibody to Immunogen IV) [%] | %B/B0 [2] [%]
1 | COc1ccc(C(=O)c2c(C)n(CCN3CCOCC3)c3cc(I)ccc23)cc1 [AM-630 (other name 6-Iodopravadoline), 6-Iodopravadoline] | 91.12 | 99.88 | 90.17 | 89.88 |  |  |  |  |  |  | 
2 | O=C(c1ccc(I)cc1)c1cn(CCCCCF)c2ccccc12 [AM-694 4-iodo isomer] | 73.79 | 98.71 | 27.66 | 13.42 |  |  |  |  |  |  | 
3 | CN1CCCCC1Cn1cc(C(=O)c2cc([N+](=O)[O-])ccc2I)c2ccccc21 (centres unmarked) [AM-1241] | 85.61 | 94.96 | 91.38 | 102.46 |  |  |  |  |  |  | 
4 | CCCCCCC(C)(C)C1=CC(=O)C([C@@H]2CCC[C@H](O)C2)=CC1=O [CP-47,497-para-quinone analogue] | 100.26 | 93.29 | 97.33 | 88.11 |  |  |  |  |  |  | 
5 | CCCCCCCC(C)(C)c1ccc([C@H]2CCC[C@@H](O)C2)c(O)c1 [CP-49,497-C8-homologue] | 101.11 | 98.55 | 94.66 | 104.88 |  |  |  |  |  |  | 
6 | CCCCCCC(C)(C)c1cc(O)c2c(c1)OC(C)(C)[C@@H]1CC=C(CO)C[C@@H]21 [HU-210] | 102.57 | 100.39 | 92.53 | 93.42 |  |  |  |  |  |  | 
7 | CCCCCCC(C)(C)c1cc(O)c2c(c1)OC(C)(C)[C@H]1CC=C(CO)C[C@H]21 [HU-211 (Dexanabinol), Dexanabinol] | 103.36 | 96.78 | 93.37 | 92.70 |  |  |  |  |  |  | 
8 | CCCCCCC(C)(C)c1cc(OC)c([C@@H]2C=C(CO)[C@@H]3C[C@H]2C3(C)C)c(OC)c1 [HU-308] | 101.35 | 95.95 | 94.03 | 89.77 |  |  |  |  |  |  | 
9 | CCCCCn1cc(C(=O)c2ccc3ccccc3c2)c2ccccc21 [JWH 018 2'-naphthyl isomer] | 75.90 | 94.98 | 28.13 | 14.94 |  |  |  |  |  |  | 
10 | CCCCCn1cc(C(=O)C23CC4CC(CC(C4)C2)C3)c2ccccc21 [JWH 018 adamantyl analog] | 95.94 | 94.48 | 99.02 | 10.97 |  |  |  |  |  |  | 
11 | CCCCCn1cc(C(=O)Cc2ccccc2OC)c2cc(O)ccc21 [JWH 250 5-hydroxyindole metabolite] | 100.75 | 99.88 | 84.05 | 67.19 |  |  |  |  |  |  | 
12 | COc1ccccc1CC(=O)c1cn(CCCCCC(=O)O)c2ccccc12 [JWH 250 N-(5-carboxypentyl) metabolite] | 86.21 | 97.60 | 89.88 | 89.30 |  |  |  |  |  |  | 
13 | COc1ccccc1CC(=O)c1cn(CCCCCO)c2ccccc12 [JWH 250 N-(5-hydroxypentyl) metabolite] | 75.47 | 96.13 | 76.22 | 42.79 |  |  |  |  |  |  | 
14 | CCCCCn1cc(C(=O)Cc2cccc(C)c2)c2ccccc21 [JWH 251 3-methylphenyl isomer] | 85.90 | 99.32 | 51.15 | 8.97 |  |  |  |  |  |  | 
15 | CCCCCC(C)n1c(C)c(C(=O)c2cccc3ccccc23)c2ccccc21 (centres unmarked) [JWH-011] | 62.13 | 57.43 | 99.19 | 97.49 |  |  |  |  |  |  | 
16 | CCCCCn1c(O)c(C(=O)c2cccc3ccccc23)c2ccccc21 [JWH-018 2-hydroxyindole metabolite] | 95.37 | 95.08 | 100.14 | 101.36 |  |  |  |  |  |  | 
17 | CCCCCn1ccc(C(=O)c2cccc3ccccc23)c1 [JWH-030] | 61.17 | 89.66 | 93.17 | 94.25 |  |  |  |  |  |  | 
18 | CCCCn1c(O)c(C(=O)c2cccc3ccccc23)c2ccccc21 [JWH-073 2-hydroxyindole metabolite] | 89.62 | 92.65 | 89.63 | 93.42 |  |  |  |  |  |  | 
19 | CCCCn1cc(C(=O)c2ccc(C)c3ccccc23)c2ccccc21 [JWH-073 4-methylnaphthyl analogue] | 45.54 | 78.36 | 7.01 | 19.75 |  |  |  |  |  |  | 
20 | COc1ccc(C(=O)c2cn(CCCCCO)c3ccccc23)c2ccccc12 [JWH-081 N-(5-hydroxypentyl) metabolite] | 61.86 | 89.31 | 26.31 | 47.16 |  |  |  |  |  |  | 
21 | CCCCCn1cc(C(=O)c2ccc(OC)c3ccccc23)c2ccccc21 [JWH-081] | 62.13 | 86.72 | 3.78 | 15.88 |  |  |  |  |  |  | 
22 | CCCCCn1c(C)c(C(=O)c2ccc(OC)c3ccccc23)c2ccccc21 [JWH-098] | 77.58 | 82.85 | 44.03 | 59.80 |  |  |  |  |  |  | 
23 | CCCC(C)(C)c1ccc2c(c1)OC(C)(C)[C@@H]1CC=C(C)C[C@@H]21 [JWH-133] | 100.56 | 101.84 | 98.18 | 100.00 |  |  |  |  |  |  | 
24 | CCCCCCn1cc(C(=O)c2cccc3ccccc23)cc1-c1ccccc1 [JWH-147] | 83.85 | 99.32 | 97.00 | 92.32 |  |  |  |  |  |  | 
25 | CCCCCn1cc(C(=O)c2cccc3ccc(OC)cc23)c2ccccc21 [JWH-164 (JWH-081 7-methoxynaphthyl isomer), JWH-081 7-methoxynaphthyl isomer] | 91.86 | 96.13 | 36.14 | 57.93 | 88.26 | 97.60 | 39.20 | 59.51 |  |  | 
26 | CCCCCn1cc(C(=O)c2ccc(CCC)c3ccccc23)c2ccccc21 [JWH-182] | 107.08 | 98.40 | 12.83 | 30.65 |  |  |  |  |  |  | 
27 | O=C(c1ccc2ccccc2c1)c1cn(CCN2CCOCC2)c2ccccc12 [JWH-200 2'-naphthyl isomer] | 28.57 | 94.65 | 92.29 | 96.12 |  |  |  |  |  |  | 
28 | CCCCCn1cc(C(=O)Cc2ccc(OC)cc2)c2ccccc21 [JWH-201] | 77.14 | 100.25 | 59.03 | 8.26 |  |  |  |  |  |  | 
29 | NCCc1c[nH]c2ccc(O)cc12 [Serotonin HCl] |  | 99.83 | 95.40 | 100.36 |  |  |  |  |  |  | 
30 | (-)-11-nor-9-Carboxy-delta9-THC |  |  |  |  |  |  |  |  | 98.72 | 93.08 | 103.36
